# Measurements from PubChem BioAssay (NCI).
# Where “and” joins values, the source holds several entries; their conditions need not be identical. Equal entries are not always repeated.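 Five concentrations, 48 hours, 96-well plates. The concentration for 50% growth inhibition is given as GI50. At the TGI there is no net growth.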
# Assays:
# Assay in all cases: NCI-60 cell line screen, 48 h
# A498 renal = tested on: A498 renal
# COLO 205 colon = tested on: COLO 205 colon
# HCT-116 colon = tested on: HCT-116 colon
# M14 melanoma = tested on: M14 melanoma
# NCI-H23 lung = tested on: NCI-H23 lung
# OVCAR-4 ovarian = tested on: OVCAR-4 ovarian
# RXF 393 renal = tested on: RXF 393 renal
# SNB-19 CNS = tested on: SNB-19 CNS
# UACC-257 melanoma = tested on: UACC-257 melanoma
# SK-MEL-5 melanoma = tested on: SK-MEL-5 melanoma
Structure (SMILES),TGI (A498 renal),TGI (COLO 205 colon),TGI (HCT-116 colon),TGI (M14 melanoma),TGI (NCI-H23 lung),TGI (OVCAR-4 ovarian),TGI (RXF 393 renal),TGI (SNB-19 CNS),TGI (UACC-257 melanoma),TGI (SK-MEL-5 melanoma),GI50 (A498 renal),GI50 (M14 melanoma),GI50 (NCI-H23 lung),GI50 (OVCAR-4 ovarian),GI50 (RXF 393 renal),GI50 (SNB-19 CNS),GI50 (UACC-257 melanoma),GI50 (COLO 205 colon),GI50 (HCT-116 colon),GI50 (SK-MEL-5 melanoma)
COC1CCC(OS(C)(=O)=O)CO1 (stereo unspecified),> 100 µM,> 100 µM,> 100 µM,> 100 µM,> 100 µM,> 100 µM,> 100 µM,> 100 µM,> 100 µM,–,–,–,–,–,–,–,–,–,–,–
CCCCC1Cc2cc(OC)ccc2-c2nc3cc(OC)ccc3n21 (stereo unspecified) (tested in a mixture with another compound),–,18.7 µM,22.8 µM,28.2 µM,27.8 µM,18.9 µM,30.8 µM,21.5 µM,29.9 µM,27.4 µM,–,–,–,–,–,–,–,–,–,–
N=C(N)C(N=Nc1ccccc1)C(=N)N (stereo unspecified),> 100 µM,> 100 µM,> 100 µM,> 100 µM,> 100 µM,> 100 µM,> 100 µM,> 100 µM,> 100 µM,> 100 µM,–,–,–,–,–,–,–,–,–,–
O=C1OC(c2ccccc2)=N/C1=C/c1cccs1,–,–,–,> 100 µM,–,> 100 µM,> 100 µM,> 100 µM,> 100 µM,–,–,–,–,–,–,–,–,–,–,–
O=c1c2c([nH]c3nccn13)CCCC2,> 10 µM,> 10 µM,> 10 µM,> 10 µM,> 10 µM,> 10 µM,> 10 µM,> 10 µM,–,> 10 µM,–,–,–,–,–,–,–,–,–,–
C[N+]1(C)C2CCC1CC(OC(=O)C(CO)c1ccccc1)C2 (stereo unspecified),> 100 µM,> 100 µM,> 100 µM,> 100 µM,> 100 µM,> 100 µM,> 100 µM,> 100 µM,> 100 µM,> 100 µM,–,–,–,–,–,–,–,–,–,–
CCN(CC)/C(=C\Cl)Nc1ccccn1,> 100 µM,> 100 µM,> 100 µM,> 100 µM,> 100 µM,> 100 µM,> 100 µM,> 100 µM,> 100 µM,> 100 µM,–,–,–,–,–,–,–,–,–,–
O=C1CCC(NC(=O)Cc2ccc(O)cc2)C(=O)N1 (stereo unspecified),> 2500 µM,> 2500 µM,> 2500 µM,> 2500 µM,> 2500 µM,> 2500 µM,–,> 2500 µM,> 2500 µM,> 2500 µM,–,–,–,–,–,–,–,–,–,–
CN1CCN(CCCOc2ccc3ncnc(Nc4ccc(Oc5cccc(C(F)(F)F)c5)c(Cl)c4)c3c2)CC1,3.23 µM,–,–,3.87 µM,4.04 µM,5.04 µM,2.93 µM,3.8 µM,3.75 µM,–,1.42 µM,1.87 µM,1.81 µM,1.76 µM,1.49 µM,1.83 µM,1.82 µM,–,–,–
O=C1CC(N2C(=O)/C(=C/C(Cl)=C\c3ccc([N+](=O)[O-])cc3)SC2=S)C(=O)N1c1ccc(Cl)cc1 (stereo unspecified),–,3.76 µM,3.04 µM,5.06 µM,4.31 µM,> 100 µM,2.72 µM,2.97 µM,66.5 µM,–,–,2.11 µM,1.64 µM,5.55 µM,1.26 µM,1.17 µM,2.92 µM,1.4 µM,1.35 µM,–
COc1nc(C#CCCCC#N)nc(OC)n1,37.6 µM,> 100 µM,41.3 µM,47.8 µM,31.4 µM,17.9 µM,30.9 µM,> 100 µM,45.2 µM,28.2 µM,–,–,–,–,–,–,–,–,–,–
Cc1c(N)nc([C@H](CC(N)=O)NC[C@H](N)C(N)=O)nc1C(=O)N[C@H](C(=O)N[C@H](C)[C@@H](O)[C@H](C)C(=O)N[C@H](C(=O)NCCc1nc(-c2nc(C(=O)NCCC[S+](C)C)cs2)cs1)[C@@H](C)O)C(OC1OC(CO)C(O)C(O)C1OC1OC(CO)C(O)C(OC(N)=O)C1O)c1cnc[nH]1 (stereo partly specified),19.6 µM and 29 µM and 41.5 µM,–,20.9 µM [middle of 4 runs],–,–,–,–,23 µM and 25 µM and > 100 µM,24.6 µM and > 100 µM,16.9 µM [middle of 4 runs],–,–,–,–,–,2.72 µM and 2.89 µM,27.5 µM,–,–,–
O=C(NN1C(=O)/C(=C/c2ccc(Cl)cc2)N=C1c1ccccc1)c1c(Cl)c(Cl)c(Cl)c(Cl)c1-c1nc2ccccc2[nH]1,44.5 µM,> 100 µM,45.2 µM,68.8 µM,34.9 µM,–,–,> 100 µM,–,> 100 µM,–,–,–,–,–,–,–,–,–,–
CN(C)CCNc1c([N+](=O)[O-])cc2c3c(cccc13)C(=O)N(CCN(C)C)C2=O,4.34 µM,2.71 µM,15.3 µM,–,3.89 µM,5.84 µM,3.69 µM,8.33 µM,4.71 µM,4.32 µM,–,–,–,–,–,–,–,–,–,–
CN1CCC23c4ccccc4NC1C21CCN(C)C3Nc2ccccc21,> 375 µM,> 375 µM,> 375 µM,–,> 375 µM,> 375 µM,> 375 µM,> 375 µM,231 µM,> 174 µM,–,–,–,–,–,–,–,–,–,–
Cc1nc(Cl)c(C)c(Cl)n1,> 100 µM,> 100 µM,> 100 µM,> 100 µM,> 100 µM,> 100 µM,> 100 µM,> 100 µM,> 100 µM,> 100 µM,–,–,–,–,–,–,–,–,–,–
COC1(OC)C[C@H](C)[C@@]23O[C@]24c2cc(O)c5c(c2N[C@H]3C#C/C=C\C#C[C@]14O)C(=O)c1ccccc1C5=O,0.00964 µM and 0.0459 µM,0.0369 µM,0.148 µM,0.0176 µM and 0.0111 µM,0.0229 µM,4.2 µM,0.0256 µM and 0.0186 µM,0.225 µM,0.0789 µM and 0.0505 µM,0.0222 µM and 0.00891 µM,0.005 µM,0.00194 µM,–,–,0.00163 µM,–,0.00624 µM,–,–,0.00172 µM
COc1ccc(OC)c2sc(N3C(=O)/C(=C/c4ccccc4S)N=C3c3ccccc3)nc12,> 100 µM,> 100 µM,78.2 µM,> 100 µM,–,> 100 µM,58.5 µM,> 100 µM,> 100 µM,40.6 µM,–,–,–,–,–,–,–,–,–,–
O=C1CC(n2cccc2)c2cc(Br)sc21 (stereo unspecified),> 100 µM,> 100 µM,> 100 µM,> 100 µM,> 100 µM,> 100 µM,–,> 100 µM,> 100 µM,> 100 µM,–,–,–,–,–,–,–,–,–,–
N#CCc1[nH]nc2nc(SCc3ccccc3)nc(N3CCCCC3)c12,73.4 µM,34.7 µM,32.4 µM,34.8 µM,33.1 µM,36.4 µM,32.2 µM,34.8 µM,35.7 µM,32.8 µM,–,–,–,–,–,–,–,–,–,–
O=C1CS(=O)(=O)C(c2cccc(Oc3ccccc3)c2)N1c1cccc(Cl)c1Cl (stereo unspecified),–,67.8 µM,40.9 µM,> 100 µM,–,78.9 µM,66.9 µM,> 100 µM,51.2 µM,42.6 µM,–,–,–,–,–,–,–,–,–,–
OC1C=C2C3CN(Cc4cc5c(cc43)OCO5)[C@H]2C[C@@H]1O (stereo partly specified),39.9 µM,> 100 µM,25.1 µM,25 µM,67.4 µM,25.9 µM,21.4 µM,76.1 µM,9.29 µM,16.4 µM,–,–,–,–,–,–,–,–,–,–
Cc1c2c(cc3c1[nH]c1ccccc13)C(c1ccc(F)cc1)=NCC2,4.73 µM,2.15 µM,5.41 µM,–,7.56 µM,3.12 µM,4.32 µM,6.94 µM,2.46 µM,4.83 µM,–,–,–,–,–,–,–,–,–,–
OC(c1ccc(-c2ccccc2)cc1)(c1ccc(-c2ccccc2)cc1)c1ccc(-c2ccccc2)cc1,–,> 100 µM,> 100 µM,> 100 µM,> 100 µM,> 100 µM,> 100 µM,> 100 µM,> 100 µM,> 100 µM,–,–,–,–,–,–,–,–,–,–
CO[C@@]12C[C@@H](CNC(=O)c3cc(Br)c[nH]3)O[C@@H]1NC(=O)N2,> 100 µM,> 100 µM,> 100 µM,> 100 µM,> 100 µM,> 100 µM,> 100 µM,> 100 µM,> 100 µM,> 100 µM,–,–,–,–,–,–,–,–,–,–
CCC(C)C(NC(=O)C(CCCCN)NC(=O)C(NC(=O)C(CCC(N)=O)NC(=O)C(CCCNC(=N)N)NC(C)=O)C(C)CC)C(=O)NC(Cc1c[nH]c2ccccc12)C(=O)NC(Cc1ccccc1)C(=O)NC(CCC(N)=O)C(=O)NC(CC(N)=O)C(=O)NC(CCCNC(=N)N)C(=O)NC(CCCNC(=N)N)C(=O)NC(CCSC)C(=O)NC(CCCCN)C(=O)NC(Cc1c[nH]c2ccccc12)C(=O)NC(CCCCN)C(=O)NC(CCCCN)C(N)=O (stereo unspecified),> 50 µM,> 50 µM,> 50 µM,> 50 µM,> 50 µM,> 50 µM,> 50 µM,> 50 µM,> 50 µM,> 50 µM,–,–,–,–,–,–,–,–,–,–
O=C(O)C(Cc1ccccc1)N1C(=O)c2ccccc2C1=O (stereo unspecified),> 100 µM,> 100 µM,> 100 µM,> 100 µM,> 100 µM,> 100 µM,> 100 µM,> 100 µM,> 100 µM,> 100 µM,–,–,–,–,–,–,–,–,–,–
CC(=O)C1(c2ccccc2)CCCN(C)CC1 (stereo unspecified),> 100 µM,> 100 µM,> 100 µM,> 100 µM,> 100 µM,> 100 µM,–,> 100 µM,> 100 µM,> 100 µM,–,–,–,–,–,–,–,–,–,–
